Laboratory results: ChEMBL document CHEMBL4138286, “ent-Jungermannenone C Triggers Reactive Oxygen Species-Dependent Cell Differentiation in Leukemia Cells” (J Nat Prod, 2018)
The source made the active and inactive calls. The rule behind the calls is not given here.

Assays:
NB-4 [1] = assay: Cytotoxicity against human NB4 cells assessed as reduction in cell viability after 24 hrs by CellTiter-Glo assay; assay type: functional, cell-based; conditions: NB-4, 24 h
[2] = Cytotoxicity against human NB4-LR2 cells assessed as reduction in cell viability after 24 hrs by CellTiter-Glo assay; assay type: functional, cell-based
HL-60 = assay: Cytotoxicity against human HL60 cells assessed as reduction in cell viability after 24 hrs by CellTiter-Glo assay; assay type: functional, cell-based; conditions: HL-60, 24 h
Ramos = assay: Cytotoxicity against human Ramos cells assessed as reduction in cell viability after 24 hrs by CellTiter-Glo assay; assay type: functional, cell-based
SUD4 = assay: Cytotoxicity against human SUDHL4 cells assessed as reduction in cell viability after 24 hrs by CellTiter-Glo assay; assay type: functional, cell-based; conditions: SU-DHL-4, 24 h
OCI-Ly10 = assay: Cytotoxicity against human OCI-LY10 cells assessed as reduction in cell viability after 24 hrs by CellTiter-Glo assay; assay type: functional, cell-based; conditions: OCI-Ly10, 24 h
NB-4 [3] = assay: Induction of cell differentiation in human NB4 cells at 3 uM after 6 days by light microscopy based NBT reduction assay; assay type: functional
[4] = target: T1, Peroxiredoxin-1 (Homo sapiens) (UniProt Q06830); assay: Binding affinity to wild type recombinant human N-terminal 6His-tagged peroxiredoxin-1 expressed in Escherichia coli BL21 after 1 hr by LC-MS/MS analysis
T1 sequence (whole entry): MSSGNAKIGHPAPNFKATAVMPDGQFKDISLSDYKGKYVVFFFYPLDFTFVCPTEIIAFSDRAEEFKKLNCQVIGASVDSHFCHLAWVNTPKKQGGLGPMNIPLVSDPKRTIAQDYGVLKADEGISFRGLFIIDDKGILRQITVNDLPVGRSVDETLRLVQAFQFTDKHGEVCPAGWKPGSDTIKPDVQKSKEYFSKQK

[5] = target: T2, Peroxiredoxin-2 (Homo sapiens) (UniProt P32119); assay: Binding affinity to wild type recombinant human N-terminal 6His-tagged peroxiredoxin-2 expressed in Escherichia coli BL21 after 1 hr by LC-MS/MS analysis
T2 sequence (whole entry): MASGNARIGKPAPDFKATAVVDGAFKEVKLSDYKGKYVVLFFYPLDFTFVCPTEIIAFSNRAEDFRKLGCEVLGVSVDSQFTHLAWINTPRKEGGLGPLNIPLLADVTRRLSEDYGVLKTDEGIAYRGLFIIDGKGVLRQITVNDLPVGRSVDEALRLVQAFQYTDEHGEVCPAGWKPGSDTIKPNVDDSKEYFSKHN

A549 = assay: Cytotoxicity against human A549 cells assessed as reduction in cell viability after 24 hrs by CellTiter-Glo assay; assay type: functional, cell-based
[6] = target: T1, Peroxiredoxin-1 (Homo sapiens); assay: Binding affinity to wild type recombinant human N-terminal 6His-tagged peroxiredoxin-1 expressed in Escherichia coli BL21 up to 200 uM by immunoblot analysis
NB-4 [7] = assay: Cytotoxicity against human NB4 cells assessed as reduction in cell viability at 3 uM measured up to 72 hrs by trypan blue exclusion assay; assay type: functional, cell-based
NB-4 [8] = assay: Induction of cell differentiation in human NB4 cells assessed as reduction in nucleus/cytoplasm ratio at 3 uM after 6 days by Wright-Giemsa staining based assay; assay type: functional
NB-4 [9] = assay: Induction of cell differentiation in human NB4 cells assessed as CD11b positive cells at 3 uM after 6 days by flow cytometry (reference value: 7.25 +/- 1.18%); assay type: functional
[10] = Induction of cell differentiation in human NB4-LR2 cells assessed as CD11b+ expression at 4 uM after 24 hrs by flow cytometry (reference value: 6.36%); assay type: functional
U-937 = assay: Induction of cell differentiation in human U937 cells assessed as CD11b+ expression at 4 uM after 24 hrs by flow cytometry (reference value: 13.46%); assay type: functional
NB-4 [11] = assay: Induction of cell differentiation in human NB4 cells assessed as CD11b+ expression at 3 uM after 3 days by flow cytometry (reference value: 7.5%); assay type: functional
NB-4 [12] = assay: Potentiation of ATRA-induced cell differentiation in human NB4 cells assessed as CD11b+ expression at 3 uM after 3 days by flow cytometry (reference value: 56.1%); assay type: functional
[13] = Induction of cell differentiation in human NB4-LR2 cells assessed as CD11b+ expression at 2 uM after 3 days by flow cytometry (reference value: 13.3%); assay type: functional
[14] = Potentiation of ATRA-induced cell differentiation in human NB4-LR2 cells assessed as CD11b+ expression at 2 uM after 3 days by flow cytometry (reference value: 28.8%); assay type: functional
[15] = Induction of cell differentiation in human MR2 cells assessed as CD11b+ expression at 2 uM after 3 days by flow cytometry (reference value: 4.3%); assay type: functional
[16] = Potentiation of ATRA-induced cell differentiation in human MR2 cells assessed as CD11b+ expression at 2 uM after 3 days by flow cytometry (reference value: 24.5%); assay type: functional
NB-4 [17] = assay: Induction of ROS accumulation in human NB4 cells at 3 uM by CM-H2DCFDA probe based flow cytometry; assay type: functional, cell-based
NB-4 [18] = assay: Induction of cell differentiation in human NB4 cells assessed as CD11b+ expression at 3 uM pretreated with NAC for 4 hrs followed by compound addition measured after 6 days by flow cytometry (reference value: 4.58 +/- 1.53%); assay type: functional
NB-4 [19] = assay: Induction of cell differentiation in human NB4 cells assessed as CD11b+ expression at 3 uM measured after 6 days by flow cytometry (reference value: 4.58 +/- 1.53%); assay type: functional
NB-4 [20] = assay: Cytotoxicity against human NB4 cells assessed as reduction in cell viability pretreated with NAC for 4 hrs followed by compound addition measured after 24 hrs by trypan blue assay; assay type: functional, cell-based
[21] = Cytotoxicity against PBMC (unknown origin) assessed as cell viability at 20 uM after 24 hrs by trypan blue exclusion assay relative to control; assay type: cell-based; conditions: read-out: Activity
PBMC = assay: Cytotoxicity against PBMC (unknown origin) assessed as reduction in cell viability at 1 to 20 uM after 24 hrs by trypan blue exclusion assay; assay type: cell-based
SU-DHL-2 = assay: Cytotoxicity against human SU-DHL-2 cells assessed as reduction in cell viability after 24 hrs by CellTiter-Glo assay; assay type: functional, cell-based; conditions: SU-DHL-2, 24 h
[22] = Cytotoxicity against human OCI-Ly8 cells assessed as reduction in cell viability after 24 hrs by CellTiter-Glo assay; assay type: functional, cell-based; conditions: OCI-Ly8, 24 h

Question: With C=C1C(=O)[C@@H]2C3=C(CC[C@@H]4C(C)(C)CCC[C@@]34C)C[C@H]1[C@@H]2O as the compound, how does the IC50 (NB-4 [1]) read?
Answer: 4.7 µM

Question: What about the IC50 [2] of the same compound?
Answer: 3.1 µM

Question: And the IC50 (HL-60)?
Answer: 3.1 µM

Question: And the IC50 (Ramos)?
Answer: 5.1 µM

Question: And the IC50 (SUD4)?
Answer: 4.8 µM

Question: What about the IC50 (OCI-Ly10) of the same compound?
Answer: 8.4 µM

Question: And the Activity (NB-4 [3])?
Answer: 17%

Question: What does the source list for C=C1C(=O)[C@H]2C3=C(CC[C@H]4C(C)(C)CCC[C@]34C)C[C@@H]1[C@H]2O?
Answer: Activity [4]: Active; Activity [5]: Active; IC50 (NB-4 [1]): 1.8 µM; IC50 [2]: 1.6 µM; IC50 (HL-60): 1.8 µM; IC50 (Ramos): 1.9 µM; IC50 (SUD4): 1.3 µM; IC50 (OCI-Ly10): 3.7 µM; Activity (A549): Active; Activity [6]: Active; Activity (NB-4 [7]): inactive; Activity (NB-4 [8]): Active; Activity (NB-4 [9]): 40.7%; Activity (NB-4 [3]): 40%; Activity [10]: 21.4%; Activity (U-937): 33.13%; Activity (NB-4 [11]): 16.4%; Activity (NB-4 [12]): 80.6%; Activity [13]: 29.4%; Activity [14]: 49.5%; Activity [15]: 4.9%; Activity [16]: 32.6%; Activity (NB-4 [17]): Active; Activity (NB-4 [18]): 13.2%; Activity (NB-4 [19]): 44.97%; Activity (NB-4 [20]): inactive

Question: Which viability at 24 h, 20 µM [21] does the source give for C=C1C(=O)C2C3=C(CCC4C(C)(C)CCCC34C)CC1C2O (racemic) here?
Answer: 80%

Question: And the Activity (PBMC)?
Answer: Non-Toxic

Question: And the IC50 (SU-DHL-2)?
Answer: < 5 µM

Question: What about the IC50 [22] of the same compound?
Answer: < 5 µM
